# Entries after “also recorded” stand apart in the source; their conditions may differ.
# What was measured:
# Assay type in all cases: cell-based, human
# [1] = tested on: IKAP transcript; test: Real-time RT-PCR analysis of IKAP RNA in FD-derived and normal fibroblast cells; details: for effect on cellular levels of IKAP transcripts: 48 h, 25 and 2.5 μg/ml
# Method: In order to identify agents that could modulate the level of the wild type IKAP transcript produced in FD-derived cells, either by increasing transcription or modulating splicing, FD-derived fibroblast cells (GM00850) were treated with a variety of biological agents. RNA was isolated from the treated cells and was subjected to real-time RT-PCR analysis using primers specific for the wild-type IKAP transcript. More specifically, FD-derived fibroblast cells, seeded in 96-well plates at a concentration of 4000 cells/well for at least one day prior to treatment, were treated in triplicate for approximately 48 h unless noted otherwise. After treatment, the cells were washed once with PBS and then lysed in 50 μl of Cell-to-cDNA lysis buffer (Ambion) at 75° C. for 12 min. After one freeze-thaw cycle, 4 μl of lysate was used in 20 μl RT-PCRs. The Quantitect SYBR Green RT-PCR Kit (Qiagen) was used for real-time RT-PCR analysis of the relative quantities of the exon 20-containing transcript (wild-type), the exon 20-lacking transcript (mutant), as well as an exon 34-35-containing transcript that is unaffected by the FD-causing mutation (total). An ABI PRISM 7000 Sequence Detection System (Applied Biosystems), programmed as follows, was used to perform the real-time RT-PCR and analysis: 50° C. for 30 min and 95° C. for 15 min for one cycle, followed by 40 cycles of 94° C. for 15 s, 57-60° C. for 30 s, and 72° C. for 30 s. To present relative amounts of PCR product obtained, results were expressed as changes in the threshold cycle (ΔCT) compared to untreated cells. The threshold cycle refers to the PCR cycle at which the fluorescence of the PCR is increased to a calculated level above background. A change of 1.0 in CT, assuming 100% PCR efficiency, would reflect a twofold change in the starting amount of the RNA template that was amplified.
# To control for the amount of RNA present in the samples, RT-PCR amplification of ribosomal 18S RNA was performed on all cell lysates. […] For this analysis, TaqMan Ribosomal RNA Control Reagents were used with the TaqMan EZ RT-PCR Kit (Applied Biosystems) as per the manufacturer's protocol.
# To characterize the kinetics of the δ-tocotrienol-mediated accumulation of the IKAP transcript, FD-derived (GM00850 and GM04663) and normal (GM02912) fibroblast cells were exposed to 12.5 μg/ml of δ-tocotrienol for periods up to 48 h and the amount of the IKAP-encoding transcripts was determined by real-time RT-PCR, as described above.
# To evaluate the IKAP mRNA-inducing ability of other molecules in the vitamin E family that are related to […], GM00850, GM04663, and GM02912 cells were incubated in the absence or presence of 25 and 2.5 μg/ml of either α, β, γ, or δ tocopherols or tocotrienols.
# As described above, α, β, γ or δ tocopherol alone had no impact on IKAP mRNA levels when FD-derived or normal fibroblasts were treated for 48 hr. To determine if α-tocopherol in combination with tocotrienols would have an impact on IKAP mRNA levels, FD-derived GM00850 and GM04663 fibroblasts were treated for 48 hr with either 25 or 12.5 μg/mL of a mixture of α, β, γ and δ tocotrienols alone or in combination with 50 μg/mL of α-tocopherol.
# [2] = tested on: IKBKAP gene transcription; test: Nuclear run-on transcription assay in GM04663 cells; details: 48 h, 12.5 μg/ml, versus untreated cells
# Method: The δ-tocotrienol-mediated accumulation of the IKAP-encoding transcripts was either the result of an elevation in the level of gene transcription or the stabilization of this RNA. To distinguish between these possibilities, nuclear run-on transcription assays were performed on cells incubated in either the presence or absence of δ-tocotrienol. Isolation of nuclei and transcription in the presence of [α-^32P]UTP (Perkin Elmer Life Sciences) were performed essentially as described by B. Y. Rubin (J. Biol. Chem. 266: 24245-24248 (1991)). Briefly, confluent monolayers of GM04663 cells in 175 cm^2 flasks were incubated for 48 h in the presence or absence of 12.5 μg/ml δ-tocotrienol. The cells were then lysed by Dounce homogenization and the resultant nuclei were incubated with 250 μCi [α-^32P]UTP. The radiolabeled RNA was treated with DNase, purified with Trizol LS reagent (Invitrogen), and then hybridized to 5 μg of plasmid containing either a full-length cDNA encoding IKAP or a cDNA encoding GAPDH that was immobilized on Nytran Super-Charge nylon membrane (Schleicher & Schuell) using a spot-blot apparatus. The amount of radiolabeled RNA bound was detected by autoradiography and then quantitated by densitometric scanning of the X-ray film.
# [3] = tested on: full-length IKAP; test: Western blot analysis of full-length IKAP in fibroblast cells; details: 12.5 μg/ml
# Method: Western blot analysis was performed on cellular extracts prepared from δ-tocotrienol-treated FD-derived (GM00850 and GM04663) and normal (GM02912) fibroblast cells, using a monoclonal antibody generated against a peptide corresponding to exons 23-28 of IKAP that only recognize the full-length IKAP. Basically, cells treated for 48 h with 12.5 μg/ml of δ-tocotrienol were washed twice with PBS and lysed in 0.5 M Tris-HCl, pH 6.8, containing 1.4% SDS. Western blot analysis was performed essentially as described by B. Y. Rubin (Proc. Natl. Acad. Sci. USA 82: 6637-6641 (1985)). Essentially, equal amounts of protein fractionated on a 7% NuPAGE Tris-Acetate Gel (Invitrogen) were blotted onto nitrocellulose (Bio-Rad) and probed overnight with a monoclonal anti-body (BD Biosciences) directed against the carboxyl end (exons 23-28) of IKAP. The blot was then washed and probed with a goat anti-mouse antibody conjugated to alkaline phosphatase (Promega), followed by detection with Western Blue Substrate solution (Promega).
# [4] = tested on: IKAP transcript; test: Real-time RT-PCR analysis of wild-type IKAP RNA in LA1-55n cells; details: LA1-55n neuroblastoma cells, 48 h, varying concentrations
# Method: FIG. 7. Real-time RT-PCR analysis of wild-type IKAP RNA in LA1-55n cells. cDNA was prepared from LA1-55n cells incubated for 48 h in the absence or presence of varying concentrations of δ-tocotrienol. The relative amounts of IKAP RNA present in these cells were determined by real-time RT-PCR. The results presented represent mean values obtained in three experiments, each done in triplicate.
# The response of the neuroblastoma-derived LA1-55n cell line, which has characteristics of sympathetic neurons (J. L. Biedler, et al., “Human Neuroblastoma Cell Differentiation, in: D. Raghavan, et al., Principles and Practice of Genitourinary Oncology, Lippincott-Raven, pp. 1053-1061, (1997); D. L. Lazarova, et al., “A Neuronal-Specific RNA-Binding Protein, is a Putative Regulator of N-myc pre-mRNA Processing/Stability in Malignant Human Neuroblasts”, Oncogene 18: 2703-2710 (1999)), to treatment with […] was examined.
# [5] = GM00850, GM04663 and GM02912 cells
structure (smiles),measurement,setting,value
"Cc1c(C)c2c(c(C)c1O)CC[C@@](C)(CCC[C@H](C)CCC[C@H](C)CCCC(C)C)O2 [α-tocopherol, α-Tocopherol]",effect on cellular levels of IKAP transcripts,[1]; [5],no impact; also recorded: no effect
same,enhancement of tocotrienol-induced increase in IKAP mRNA,"[1]; GM00850 and GM04663, 48 hr, 50 μg/mL α-tocopherol with 25 or 12.5 μg/mL mixture of α, β, γ and δ tocotrienols, versus tocotrienol-only treated cells",≤ 40%
same,"effect on IKAP mRNA levels, alone","[1]; GM00850 and GM04663 fibroblasts, 48 hr, 50 μg/mL α-tocopherol alone",no effect
"CC(C)=CCC/C(C)=C/CC/C(C)=C/CC[C@]1(C)CCc2c(C)c(O)c(C)c(C)c2O1 [α-tocotrienol, α-Tocotrienol]",effect on cellular levels of IKAP transcripts,[1]; [5],as much as sixfold
"Cc1cc(O)c(C)c2c1O[C@](C)(CCC[C@H](C)CCC[C@H](C)CCCC(C)C)CC2 [β-tocopherol, β-Tocopherol]",effect on cellular levels of IKAP transcripts,[1]; [5],no impact; also recorded: no effect
"CC(C)=CCC/C(C)=C/CC/C(C)=C/CC[C@]1(C)CCc2c(C)c(O)cc(C)c2O1 [β-tocotrienol, β-Tocotrienol]",effect on cellular levels of IKAP transcripts,[1]; [5],as much as sixfold
"Cc1c(O)cc2c(c1C)O[C@](C)(CCC[C@H](C)CCC[C@H](C)CCCC(C)C)CC2 [γ-tocopherol, γ-Tocopherol]",effect on cellular levels of IKAP transcripts,[1]; [5],no impact; also recorded: no effect
"CC(C)=CCC/C(C)=C/CC/C(C)=C/CC[C@]1(C)CCc2cc(O)c(C)c(C)c2O1 [γ-tocotrienol, γ-Tocotrienol]",effect on cellular levels of IKAP transcripts,[1]; [5],as much as sixfold
"Cc1cc(O)cc2c1O[C@](C)(CCC[C@H](C)CCC[C@H](C)CCCC(C)C)CC2 [δ-tocopherol, δ-Tocopherol]",effect on cellular levels of IKAP transcripts,[1]; [5],no impact; also recorded: no effect
"CC(C)=CCC/C(C)=C/CC/C(C)=C/CC[C@]1(C)CCc2cc(O)cc(C)c2O1 [δ-tocotrienol, δ-Tocotrienol]",level of wild-type IKAP transcript,"[1]; FD-derived fibroblast GM00850, about 48 h, varying concentrations",concentration-dependent elevation
same,change in threshold cycle (ΔCT) relative to untreated cells,"[1]; GM00850, 48 h, highest concentration tested",2.5
same,increase in levels of truncated and wild-type IKAP transcripts,"[1]; GM00850, 48 h, highest concentration tested, relative to untreated cells",as much as a sixfold increase
same,levels of IKAP-encoding transcripts over time,"[1]; GM00850, GM04663 and GM02912 cells, 12.5 μg/ml, 24 h after start of treatment, versus untreated cells, accumulation continues through 48 h",significantly elevated levels
same,effect on cellular levels of IKAP transcripts,[1]; [5],as much as sixfold
same,increase in IKBKAP gene transcription,[2],approximately 3.5 fold
same,increase in amount of full-length IKAP produced,"[3]; FD-derived fibroblasts GM00850 and GM04663, 48 h, on average",approximate two-fold increase
same,IKAP level as percentage of the level present in untreated normal (GM02912) cells,"[3]; treated FD-derived cells GM00850 and GM04663, 48 h, untreated FD cells 26-30%",48-65%
same,increase in IKAP transcript levels,[4],almost a twofold increase
